{
  "source": "patent US11957761B2",
  "about": "“Compounds having α4β7 integrin inhibition activity” (priority 2021, dated 2024)",
  "key": {"in vivo [1]": {"assay": "in vivo", "conditions": "male, rat, plasma, iv, 510 nmol/kg", "description": "Sprague Dawley or Wistar rats (males with a body weight of approximately 250-350 g) were given a single intravenous (i.v. bolus) injection of the peptide to be tested. Following i.v. administration of compound 1 (dose 510 nmol/kg, dosing volume […]), blood samples were drawn at 10 min, 15 min, 40 min, 1 h, 2 h, 4 h, 8 h, 24 h post-dose. At each sampling time point, samples from the rats were drawn by tail cut. The dosing vehicle was 20 mM phosphate buffer, 260 mM mannitol, pH 7.\n(§1) Plasma samples were analyzed after protein precipitation by liquid chromatography mass spectrometry (LC-MS/MS). Individual plasma concentrations were used for calculation of the pharmacokinetic parameters using the non-compartmental approach in Phoenix WinNonlin 8.3 or a later version. Plasma terminal elimination half-life (T½) was determined as ln(2)/λz where λz is the magnitude of the slope of the log linear regression of the log concentration versus time profile during the terminal phase. AUCinf is the area under the plasma concentration−time curve extrapolated to infinity (AUCinf=AUClast+Clast/λz, where Clast is the last observed plasma concentration). C0 is the plasma concentration at the dosing time intercept and is back extrapolated by log-linear regression of the first two data points."}, "[2]": {"assay": "Pharmacokinetics in Beagle dogs, single s.c. and i.v. injection (Example 5)", "format": "in vivo", "conditions": "male, plasma, 200 ug/kg, dog", "description": "The dosing vehicle was PBS buffer, pH 7."}, "in vivo [3]": {"assay": "in vivo", "conditions": "male, Beagle, dog, plasma, sc", "description": "Beagle dogs (males with a body weight of approximately 10-12 kg) were given a single subcutaneous (s.c.) injection of the peptides to be tested. Following s.c. administration of the selected compounds (dose 10, 20, 50, 100, 200 and 400 μg/kg), dosing volume 0.1 m/kg, blood samples were drawn at 0, 3, 6, 8, 12, 24, 48, 72, 96, 120, 144, 168, 192, 216, 240, 264, 288, 312, 336, 576, 744, 936, 1104 and 1272 hours.\nBlood was sampled through a venflon on day 1 (excluding the 8-hour timepoint). At the 8-hour sampling time, and the sampling timepoints hereafter, the blood was be sampled through v. jugularis with a vacutainer and vacutainer needle. The dosing vehicle was PBS buffer, pH 7.\nas §1, with “is” for “is the plasma concentration at the dosing time intercept and is”"}, "[4]": {"assay": "Pharmacokinetics in rats, single i.v. bolus (Example 11)", "format": "in vivo, Sprague Dawley or Wistar rats", "conditions": "male, plasma, iv, rat, 511 nmol/kg", "quoted_text": "Sprague Dawley or Wistar rats (males with a body weight of approximately 250-350 g) were given a single intravenous (i.v. bolus) injection of the peptide to be tested. […] At each sampling time point, samples from the rats were drawn by tail cut. The dosing vehicle was 20 mM phosphate buffer, 260 mM mannitol, pH 7."}, "Integrin α4β7-MAdCAM-1": {"target": "Integrin α4β7-MAdCAM-1 (Homo sapiens, UniProt P13612+P26010)", "sequence (P13612 34-1032)": "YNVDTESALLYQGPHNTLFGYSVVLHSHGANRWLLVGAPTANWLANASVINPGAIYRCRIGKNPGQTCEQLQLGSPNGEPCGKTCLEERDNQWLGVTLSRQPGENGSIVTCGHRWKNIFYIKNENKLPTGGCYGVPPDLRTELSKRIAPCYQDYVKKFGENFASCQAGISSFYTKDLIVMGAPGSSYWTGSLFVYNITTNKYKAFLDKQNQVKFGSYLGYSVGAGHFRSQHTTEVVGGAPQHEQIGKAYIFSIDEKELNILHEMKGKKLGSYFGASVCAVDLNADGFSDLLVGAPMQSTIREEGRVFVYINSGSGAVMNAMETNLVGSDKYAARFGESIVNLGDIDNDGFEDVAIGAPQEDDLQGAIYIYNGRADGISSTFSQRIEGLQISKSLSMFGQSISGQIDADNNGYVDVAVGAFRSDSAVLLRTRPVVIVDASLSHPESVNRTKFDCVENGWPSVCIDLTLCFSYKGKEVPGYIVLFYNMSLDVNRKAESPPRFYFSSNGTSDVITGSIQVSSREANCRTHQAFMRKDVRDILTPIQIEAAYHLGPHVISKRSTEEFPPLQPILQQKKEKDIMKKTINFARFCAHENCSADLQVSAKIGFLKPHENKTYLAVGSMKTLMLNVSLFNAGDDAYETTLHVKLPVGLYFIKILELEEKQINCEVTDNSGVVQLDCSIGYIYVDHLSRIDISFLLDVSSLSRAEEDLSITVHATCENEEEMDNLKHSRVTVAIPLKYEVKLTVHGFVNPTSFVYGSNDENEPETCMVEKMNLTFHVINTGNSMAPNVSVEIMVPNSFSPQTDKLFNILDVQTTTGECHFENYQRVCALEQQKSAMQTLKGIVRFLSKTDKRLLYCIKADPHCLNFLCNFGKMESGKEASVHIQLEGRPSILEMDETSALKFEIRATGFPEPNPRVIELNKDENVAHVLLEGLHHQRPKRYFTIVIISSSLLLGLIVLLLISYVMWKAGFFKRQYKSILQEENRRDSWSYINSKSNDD", "sequence (P26010 20-798)": "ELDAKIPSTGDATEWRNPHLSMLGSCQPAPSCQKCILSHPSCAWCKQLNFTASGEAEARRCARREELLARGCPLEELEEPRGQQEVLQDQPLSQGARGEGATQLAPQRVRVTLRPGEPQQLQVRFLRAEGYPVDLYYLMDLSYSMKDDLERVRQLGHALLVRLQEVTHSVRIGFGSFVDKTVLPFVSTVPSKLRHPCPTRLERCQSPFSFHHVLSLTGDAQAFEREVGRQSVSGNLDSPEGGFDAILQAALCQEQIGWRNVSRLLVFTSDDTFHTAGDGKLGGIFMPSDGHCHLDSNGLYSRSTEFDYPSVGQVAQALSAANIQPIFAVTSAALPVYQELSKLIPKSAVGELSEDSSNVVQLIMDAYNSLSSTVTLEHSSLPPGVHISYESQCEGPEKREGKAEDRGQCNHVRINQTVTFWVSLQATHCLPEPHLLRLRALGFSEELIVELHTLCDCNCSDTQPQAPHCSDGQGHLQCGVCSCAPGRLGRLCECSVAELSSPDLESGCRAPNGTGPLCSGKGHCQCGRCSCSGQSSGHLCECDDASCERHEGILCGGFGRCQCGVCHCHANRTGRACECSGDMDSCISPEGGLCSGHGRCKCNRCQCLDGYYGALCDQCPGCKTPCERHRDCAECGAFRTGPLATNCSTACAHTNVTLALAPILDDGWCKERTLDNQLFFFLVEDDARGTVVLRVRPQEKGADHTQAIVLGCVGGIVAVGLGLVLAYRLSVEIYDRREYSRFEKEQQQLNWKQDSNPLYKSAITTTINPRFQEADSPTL", "assay": "cell-based", "quoted_text": "Recombinant human MAdCAM-1 (rhMAdCAM-1) was obtained from R&D systems (Cat #6056-MC-050).\nBinding buffer (1.5 mM CaCl2, 1 mM MnCl2, 100 mM NaCl, 50 mM TRIS-HCl (pH 7.5)\nCells: The human B lymphocyte cell line RPMI 8866 was obtained from Merck via ECACC (European collection of authenticated cell cultures) (Cat #95041316 and lot #14G012).\nDay 0: RPMI 8866 cells were split to a concentration of 500.000 cells/mL.\nA Maxisorp plate was coated with 100 μL/well of 1 μg/mL rhMAdCAM-1 in coating buffer. Plate was sealed with TopSeal A plus and incubated at 4° C. overnight.\nDay 1: The plate was washed twice with 150 μL wash buffer and then blocked with 250 μL/well blocking buffer (1% BSA in PBS) for one hour at room temperature. CFSE Celltrace stock solution was prepared immediately prior to use by adding 18 μL of DMSO to one vial of CellTrace™ reagent and mixing well. […]\nThe cells were pelleted by centrifugation and resuspended in fresh pre-warmed complete culture medium and the cells were counted. […]\nAfter the last wash, 100 μL of PBS (without Mg^2+ and Ca^2+) was added to each well and the fluorescence was read (Ex485/Em535) using a plate reader (Envision 2105 Multimode plate reader). To calculate the concentration response, the fluorescence value of control wells not containing cells was subtracted from each test well.\nIC50 values were calculated using 4-parameter nonlinear fit of the data."}},
  "data": [
    {"smiles": "CC[C@H](C)[C@@H]1NC(=O)[C@H](CC(=O)O)NC(=O)[C@H](CC(C)C)NC(=O)c2ccc(-c3ccc(N4CCN(C(=O)c5ccccc5-c5ccccc5C(=O)N5CCN(c6ccc(-c7ccc8cc7CNC(=O)[C@@H]7CCCN7[C@H](C(=O)NC(C)(C)C)[C@H](C)NC(=O)[C@H]([C@@H](C)CC)NC(=O)[C@H](CC(=O)O)NC(=O)[C@H](CC(C)C)NC8=O)cc6)CC5)CC4)cc3)c(c2)CNC(=O)[C@@H]2CCCN2[C@H](C(=O)NC(C)(C)C)[C@H](C)NC1=O", "note": "[Compound 1, 2,2′-((S,S,S,S,S,S,12S,8S, 11S,14S,17S,18S)-((([1,1′-biphenyl]-2,2′-dicarbonyl)bis(piperazine-4,1-diyl))bis(4,1-phenylene))bis(14-((S)-sec-butyl)-18-(tert-butylcarbamoyl)-8-isobutyl-17-methyl-2,6,9,12,15-pentaoxo-3,7,10,13,16-pentaaza-1(2,1)-pyrrolidina-5(1,3)-benzenacyclooctadecaphane-56,11-diyl))diacetic acid]", "values": [
      {"measurement": "AUC(0-inf)", "setting": "in vivo [1]", "result": 32.2, "unit": "µM·h"},
      {"measurement": "half-life", "setting": "in vivo [1]", "result": 5.61, "unit": "h"},
      {"measurement": "AUC(0-inf)", "setting": "[2]; IV", "result": 19.3, "unit": "µM·h"},
      {"measurement": "Cmax", "setting": "[2]; IV", "result": 743, "unit": "nM"},
      {"measurement": "half-life", "setting": "[2]; IV", "result": 53, "unit": "h"},
      {"measurement": "AUC(0-inf)", "setting": "[2]; SC", "result": 21.8, "unit": "µM·h"},
      {"measurement": "Cmax", "setting": "[2]; SC", "result": 127, "unit": "nM"},
      {"measurement": "half-life", "setting": "[2]; SC", "result": 95.2, "unit": "h"},
      {"measurement": "AUC(0-inf)", "setting": "in vivo [3]; 10 ug/kg", "result": 2.46, "unit": "µM·h"},
      {"measurement": "Cmax", "setting": "in vivo [3]; 10 ug/kg", "result": 18.1, "unit": "nM"},
      {"measurement": "Tmax", "setting": "in vivo [3]; 10 ug/kg", "result": 20, "unit": "h"},
      {"measurement": "half-life", "setting": "in vivo [3]; 10 ug/kg", "result": 340, "unit": "h"},
      {"measurement": "AUC(0-inf)", "setting": "in vivo [3]; 20 ug/kg", "result": 5.68, "unit": "µM·h"},
      {"measurement": "Cmax", "setting": "in vivo [3]; 20 ug/kg", "result": 43.1, "unit": "nM"},
      {"measurement": "Tmax", "setting": "in vivo [3]; 20 ug/kg", "result": 20, "unit": "h"},
      {"measurement": "half-life", "setting": "in vivo [3]; 20 ug/kg", "result": 460, "unit": "h"},
      {"measurement": "AUC(0-inf)", "setting": "in vivo [3]; 50 ug/kg", "result": 11.6, "unit": "µM·h"},
      {"measurement": "Cmax", "setting": "in vivo [3]; 50 ug/kg", "result": 102, "unit": "nM"},
      {"measurement": "Tmax", "setting": "in vivo [3]; 50 ug/kg", "result": 20, "unit": "h"},
      {"measurement": "half-life", "setting": "in vivo [3]; 50 ug/kg", "result": 340, "unit": "h"},
      {"measurement": "AUC(0-inf)", "setting": "in vivo [3]; 100 ug/kg", "result": 58.6, "unit": "µM·h"},
      {"measurement": "Cmax", "setting": "in vivo [3]; 100 ug/kg", "result": 504, "unit": "nM"},
      {"measurement": "Tmax", "setting": "in vivo [3]; 100 ug/kg", "result": 20, "unit": "h"},
      {"measurement": "half-life", "setting": "in vivo [3]; 100 ug/kg", "result": 230, "unit": "h"},
      {"measurement": "AUC(0-inf)", "setting": "in vivo [3]; 200 ug/kg", "result": 72.5, "unit": "µM·h"},
      {"measurement": "Cmax", "setting": "in vivo [3]; 200 ug/kg", "result": 417, "unit": "nM"},
      {"measurement": "Tmax", "setting": "in vivo [3]; 200 ug/kg", "result": 20, "unit": "h"},
      {"measurement": "half-life", "setting": "in vivo [3]; 200 ug/kg", "result": 230, "unit": "h"},
      {"measurement": "AUC(0-inf)", "setting": "in vivo [3]; 400 ug/kg", "result": 158, "unit": "µM·h"},
      {"measurement": "Cmax", "setting": "in vivo [3]; 400 ug/kg", "result": 927, "unit": "nM"},
      {"measurement": "Tmax", "setting": "in vivo [3]; 400 ug/kg", "result": 20, "unit": "h"},
      {"measurement": "half-life", "setting": "in vivo [3]; 400 ug/kg", "result": 260, "unit": "h"},
      {"measurement": "AUC(0-inf)", "setting": "[4]", "result": 34, "unit": "µM·h"},
      {"measurement": "C0", "setting": "[4]", "result": 9020, "unit": "nM"},
      {"measurement": "half-life", "setting": "[4]", "result": 7.88, "unit": "h"},
      {"measurement": "IC50", "setting": "Integrin α4β7-MAdCAM-1", "result": 35, "unit": "nM"}
    ]}
  ]
}
